Measurements reported in PubChem BioAssay AID1745861.

target: Solute carrier family 22 member 3 (Homo sapiens) (UniProt O75751); experiment: SLC22A3 transporter inhibition of MPP+ response – HEK293 JumpIn overexpressing cells, impedance, dose response (AID 1745861); conditions: HEK293 JumpIn OCT3, MPP+ uptake, impedance (xCELLigence)
Sequence (O75751 whole entry, looked up): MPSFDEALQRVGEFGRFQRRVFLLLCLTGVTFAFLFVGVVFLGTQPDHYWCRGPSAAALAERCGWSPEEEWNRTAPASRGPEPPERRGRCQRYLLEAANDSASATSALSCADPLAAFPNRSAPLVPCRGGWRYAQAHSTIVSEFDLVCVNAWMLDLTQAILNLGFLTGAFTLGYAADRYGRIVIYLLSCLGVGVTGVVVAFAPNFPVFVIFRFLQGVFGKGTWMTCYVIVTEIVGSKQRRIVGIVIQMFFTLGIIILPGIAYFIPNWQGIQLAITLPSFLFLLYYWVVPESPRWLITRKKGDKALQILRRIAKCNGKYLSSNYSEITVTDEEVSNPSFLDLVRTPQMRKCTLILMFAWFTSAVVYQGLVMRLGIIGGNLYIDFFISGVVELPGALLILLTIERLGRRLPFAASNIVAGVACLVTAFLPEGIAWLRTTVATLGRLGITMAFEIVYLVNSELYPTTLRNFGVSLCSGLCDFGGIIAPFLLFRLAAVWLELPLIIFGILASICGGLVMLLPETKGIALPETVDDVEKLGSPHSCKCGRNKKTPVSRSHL

Compound | IC50 [nM]
CCN1/C(=C/c2ccc3ccccc3[n+]2CC)C=Cc2ccccc21 | 400
C[n+]1ccc(-c2ccccc2)cc1 | 199000
C[C@]12C[C@H](O)[C@H]3[C@@H](CCC4=CC(=O)CC[C@@]43C)[C@@H]1CC[C@@H]2C(=O)CO | 1600
C=CC(=O)N1CCC[C@@H](n2nc(-c3ccc(Oc4ccccc4)cc3)c3c(N)ncnc32)C1 | 7900
Cc1cn(-c2cc(NC(=O)c3ccc(C)c(Nc4nccc(-c5cccnc5)n4)c3)cc(C(F)(F)F)c2)cn1 | 500
